Reference: patent publication EP4206196A1, “PYRIMIDINE SUBSTITUTED DERIVATIVES AS TYK2 INHIBITORS” (Almirall S.A., priority 2021, dated 2023)

Key:
[1] = molecular target: T1, TYK2 (JH2domain-pseudokinase) (Homo sapiens, UniProt P29597); assay: TYK2 JH2 domain binding assay (KINOMEscan)
T1 construct: TYK2 (JH2domain-pseudokinase)-tagged T7 phage strains were prepared in an E. coli host derived from the BL21 strain; made in house; host or cells: E. coli BL21-derived host (T7 phage) or HEK-293 cells
Protocol: TYK2 (JH2domain-pseudokinase) KINOMEscan assay. For the assay, TYK2 (JH2domain-pseudokinase)-tagged T7 phage strains were prepared in an E. coli host derived from the BL21 strain.E. coli were grown to log-phase and infected with T7 phage and incubated with shaking at 32°C until lysis. The lysates were centrifuged and filtered to remove cell debris. The remaining TYK2 (JH2domain-pseudokinase) were produced in HEK-293 cells and subsequently tagged with DNA for qPCR detection. Streptavidin-coated magnetic beads were treated with biotinylated small molecule ligands for 30 minutes at room temperature to generate affinity resins for kinase assays. The liganded beads were blocked with excess biotin and washed with blocking buffer (SeaBlock (Pierce), 1% BSA, 0.05% Tween 20, 1 mM DTT) to remove unbound ligand and to reduce non-specific binding. Binding reactions were assembled by combining TYK2 (JH2domain-pseudokinase), liganded affinity beads, and test compounds in 1x binding buffer (20% SeaBlock, 0.17x PBS, 0.05% Tween 20, 6 mM DTT). Test compounds were prepared as 111X stocks in 100% DMSO. Kds were determined using an 11-point 3-fold compound dilution series with three DMSO control points. All compounds for Kd measurements are distributed by acoustic transfer (non-contact dispensing) in 100% DMSO. The compounds were then diluted directly into the assays such that the final concentration of DMSO was 0.9%. All reactions performed in polypropylene 384-well plate. Each was a final volume of 0.02 ml. The assay plates were incubated at room temperature with shaking for 1 hour and the affinity beads were washed with wash buffer (1x PBS, 0.05% Tween 20). The beads were then re-suspended in elution buffer (1x PBS, 0.05% Tween 20, 0.5 µM non-biotinylated affinity ligand) and incubated at room temperature with shaking for 30 minutes. The kinase concentration in the eluates was measured by qPCR. […]
An 11-point 3-fold serial dilution of each test compound was prepared in 100% DMSO at 100x final test concentration and subsequently diluted to 1x in the assay (final DMSO concentration = 1%). Most Kds were determined using a compound top concentration = 30,000 nM. If the initial Kd determined was < 0.5 nM (the lowest concentration tested), the measurement was repeated with a serial dilution starting at a lower top concentration.
Curves were fitted using a non-linear least square fit with the Levenberg-Marquardt algorithm. […] TABLE 1: Kd Affinities for Tyk2 JH2 Domain Binding Assay.

[2] = tested on: STAT1/3 through TYK2/JAK1; assay: IFNa induced STAT phosphorylation in HEK293 cells (SIE-bla reporter gene); format: cell-based; details: Homo sapiens, HEK293; HEK293T-sie-bla cells, IFNa at EC80, 4 hours; read-out: Inhibition of IFNa induced STAT phosphorylation HEK293 cells IC50
Protocol: Stimulation of HEK293T-sie-bla cells with interferon alpha (INFa) activates the signaling pathway of STAT1/3 through TYK2/JAK1. In this assay, measurement of the activity of the reporter gene […]-lactamase expression was used as the readout.
CellSensorTM SIE-bla HEK293T cell line were purchased from Thermo Fisher Scientific (ref. #K1649B) and cultured as specified by the provider. A number of 30.000 cells per well (40 µl) were plated in a 384-well plate (Corning ref.# 3712) and cultured overnight at 37°C with 5% CO2 in a complete Optimem media (ThermoFisher ref. #11058-021) containing 0.5% (v/v) heat inactivated dialyzed FBS (Life Technologies ref. #26400044), 10 µM non-essential aminoacids NEAA (Sigma ref. #M7145), 100 µM Sodium Pyruvate (Gibco ref. #11360-039) and 100 U/mL Penicillin (Sigma ref. #P0781). Compounds were initially dissolved in 100% DMSO. Compound curves were then prepared using a 1/5 serial dilution (10 dilutions). The dilutions were directly diluted in complete Optimem media at 40-fold their final concentration in 20% DMSO. IFNa initial solution (R&D systems ref. #11100-1) was prepared at 10-fold its EC80 in complete Optimem media. Compounds and IFNa were added simultaneously to the wells with cells and incubated during 4 hours at 37°C (the final DMSO was 0.1%). The […]-lactamase substrate (LifeTechnologies ref.#K1138) was prepared at 6-fold its final concentration as specified by the provider. Then 10 µL of the mixture was added to the wells to stop the stimulation. Plate was left in the dark over-night. Then a FRET reading was performed on an appropriate plate reader.
All experiments were analysed using an ExcelFit template and the four-parameter log equation. […] TABLE 2: IC50 Inhibitions of IFNa induced STAT phosphorylation in HEK293 cells

T1 sequence (P29597 589-875 limits assumed): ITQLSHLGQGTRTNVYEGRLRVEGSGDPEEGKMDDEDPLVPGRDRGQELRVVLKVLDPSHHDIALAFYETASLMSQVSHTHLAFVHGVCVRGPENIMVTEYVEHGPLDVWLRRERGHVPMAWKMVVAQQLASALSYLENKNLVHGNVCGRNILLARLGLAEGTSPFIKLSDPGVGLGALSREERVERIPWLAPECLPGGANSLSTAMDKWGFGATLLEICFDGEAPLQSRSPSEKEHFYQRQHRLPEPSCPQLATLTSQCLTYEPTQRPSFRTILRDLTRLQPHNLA

| Structure (SMILES) | Kd [1] [nM] | IC50 [2] [nM] |
| --- | --- | --- |
| COCCn1cnc(-c2cccc(Nc3cc(Nc4cc(C)nc(C)n4)ncn3)c2OC)n1 [Example 44, N6-(2,6-dimethylpyrimidin-4-yl)-N4-[2-methoxy-3-[1-(2-methoxyethyl)-1,2,4-triazol-3-yl]phenyl]pyrimidine-4,6-diamine] | 0.2 to 1 | 10 to 100 |
| CCn1cnc(-c2cccc(Nc3cc(Nc4cc(C)nc(C)n4)ncn3)c2OC)n1 [Example 46, N4-(2,6-dimethylpyrimidin-4-yl)-N6-[3-(1-ethyl-1,2,4-triazol-3-yl)-2-methoxy-phenyl]pyrimidine-4,6-diamine] | < 0.2 | 10 to 100 |
| COc1c(Nc2cc(Nc3cc(C)nc(C)n3)ncn2)cccc1-c1ncn(CC2CCCCO2)n1 (centres unmarked) [Example 47, N4-(2,6-dimethylpyrimidin-4-yl)-N6-[2-methoxy-3-[1-(tetrahydropyran-2-ylmethyl)-1,2,4-triazol-3-yl]phenyl]pyrimidine-4,6-diamine] | 0.2 to 1 | 10 to 100 |
| COc1c(Nc2cc(Nc3cc(C)nc(C)n3)ncn2)cccc1-c1nc(C)nn1C1COC1 [Example 48, N4-(2,6-dimethylpyrimidin-4-yl)-N6-[2-methoxy-3-[5-methyl-2-(oxetan-3-yl)-1,2,4-triazol-3-yl]phenyl]pyrimidine-4,6-diamine] | > 10 | > 1000 |
| COc1c(Nc2cc(Nc3cc(C)nc(C)n3)ncn2)cccc1-c1nc(C)n(C2COC2)n1 [Example 49, N4-(2,6-dimethylpyrimidin-4-yl)-N6-[2-methoxy-3-[5-methyl-1-(oxetan-3-yl)-1,2,4-triazol-3-yl]phenyl]pyrimidine-4,6-diamine] | 0.2 to 1 | > 1000 |
| COc1c(Br)cccc1Nc1cc(Nc2cc(C)nc(C)n2)ncn1 [Example 50, N6-(3-bromo-2-methoxy-phenyl)-N4-(2,6-dimethylpyrimidin-4-yl)pyrimidine-4,6-diamine] | 1 to 10 | 100 to 1000 |
| COc1c(Nc2cc(Nc3cc(C)nc(C)n3)ncn2)cccc1-c1ncn(CC2COC2)n1 [Example 51, N6-(2,6-dimethylpyrimidin-4-yl)-N4-[2-methoxy-3-[1-(oxetan-3-ylmethyl)-1,2,4-triazol-3-yl]phenyl]pyrimidine-4,6-diamine] | < 0.2 | 10 to 100 |
| COc1c(Nc2cc(Nc3cc(C)nc(C)n3)ncn2)cccc1-c1ncn(CC2CCOCC2)n1 [Example 52, N4-(2,6-dimethylpyrimidin-4-yl)-N6-[2-methoxy-3-[1-(tetrahydropyran-4-ylmethyl)-1,2,4-triazol-3-yl]phenyl]pyrimidine-4,6-diamine] | 0.2 to 1 | 100 to 1000 |
| COc1c(Nc2cc(Nc3cc(C)nc(C)n3)ncn2)cccc1-c1ncn(CC2CC(F)(F)C2)n1 [Example 53, N6-[3-[1-[(3,3-difluorocyclobutyl)methyl]-1,2,4-triazol-3-yl]-2-methoxyphenyl]-N4-(2,6-dimethylpyrimidin-4-yl)pyrimidine-4,6-diamine] | 0.2 to 1 | 100 to 1000 |
| COc1c(Nc2cc(Nc3cc(C)nc(C)n3)ncn2)cccc1-c1ncn(C2CC2(F)F)n1 (centres unmarked) [Example 55, N6-[3-[1-(2,2-difluorocyclopropyl)-1,2,4-triazol-3-yl]-2-methoxy-phenyl]-N4-(2,6-dimethylpyrimidin-4-yl)pyrimidine-4,6-diamine] | 0.2 to 1 | 10 to 100 |
| Cc1cc(Nc2cc(Nc3nccc(C)c3N(C)S(C)(=O)=O)ncn2)nc(C)n1 [Example 61, N-(2-((6-((2,6-dimethylpyrimidin-4-yl)amino)pyrimidin-4-yl)amino)-4-methylpyridin-3-yl)-N-methylmethanesulfonamide] | 1 to 10 | 100 to 1000 |
| COc1c(Nc2cc(Nc3cc(C)nc(C)n3)ncn2)cccc1-c1noc(CN2CCOCC2)n1 [Example 62, N6-(2,6-dimethylpyrimidin-4-yl)-N4-[2-methoxy-3-[5-(morpholinomethyl)-1,2,4-oxadiazol-3-yl]phenyl]pyrimidine-4,6-diamine] | < 0.2 | 10 to 100 |

Further lines, results first:

| Kd [1] [nM] | IC50 [2] [nM] | Structure (SMILES) |
| --- | --- | --- |
| 0.2 to 1 | 10 to 100 | COc1c(Nc2cc(Nc3cc(C)nc(C)n3)ncn2)ccc(C)c1-c1ncn(C)n1 [Example 63, 6-N-(2,6-dimethylpyrimidin-4-yl)-4-N-[2-methoxy-4-methyl-3-(1-methyl-1,2,4-triazol-3-yl)phenyl]pyrimidine-4,6-diamine] |
| 0.2 to 1 | 100 to 1000 | COc1c(Nc2cc(Nc3cc(C)nc(C)n3)ncn2)ccc(F)c1-c1ncn(C)n1 [Example 64, N4-(2,6-dimethylpyrimidin-4-yl)-N6-[4-fluoro-2-methoxy-3-(1-methyl-1,2,4-triazol-3-yl)phenyl]pyrimidine-4,6-diamine] |
| 0.2 to 1 | 10 to 100 | COc1c(Nc2cc(Nc3ccc(F)cn3)ncn2)cccc1-c1ncn(C)n1 [Example 65, N4-(5-fluoro-2-pyridyl)-N6-[2-methoxy-3-(1-methyl-1,2,4-triazol-3-yl)phenyl]pyrimidine-4,6-diamine] |
| 0.2 to 1 | 100 to 1000 | Cc1cc(Nc2cc(Nc3ccccc3CS(C)(=O)=O)ncn2)nc(C)n1 [Example 66, N4-(2,6-dimethylpyrimidin-4-yl)-N6-[2-(methylsulfonylmethyl)phenyl]pyrimidine-4,6-diamine] |
| < 0.2 | 10 to 100 | Cc1cc(Nc2cc(Nc3ccc(Br)cc3N(C)S(C)(=O)=O)ncn2)nc(C)n1 [Example 67, N-[5-bromo-2-[[6-[(2,6-dimethylpyrimidin-4-yl)amino]pyrimidin-4-yl]amino]phenyl]-N-methyl-methanesulfonamide] |
| < 0.2 | 10 to 100 | Cc1ccc(Nc2cc(Nc3cc(C)nc(C)n3)ncn2)c(N(C)S(C)(=O)=O)c1 [Example 69, N-[2-[[6-[(2,6-dimethylpyrimidin-4-yl)amino]pyrimidin-4-yl]amino]-5-methyl-phenyl]-N-methyl-methanesulfonamide] |
| < 0.2 | 10 to 100 | Cc1cc(Nc2cc(Nc3ccccc3N(C)S(=O)(=O)C(F)(F)F)ncn2)nc(C)n1 [Example 71, N-[2-[[6-[(2,6-dimethylpyrimidin-4-yl)amino]pyrimidin-4-yl]amino]phenyl]-1,1,1-trifluoro-N-methyl-methanesulfonamide] |
| 1 to 10 | 100 to 1000 | Cc1cc(Nc2cc(Nc3ccccc3C(C)S(C)(=O)=O)ncn2)nc(C)n1 (centres unmarked) [Example 72, N4-(2,6-dimethylpyrimidin-4-yl)-N6-[2-(1-methylsulfonylethyl)phenyl]pyrimidine-4,6-diamine] |
| > 10 | > 1000 | Cc1cc(Nc2cc(Nc3ccccc3S(=O)(=O)N3CCCCC3)ncn2)nc(C)n1 [Example 73, N6-(2,6-dimethylpyrimidin-4-yl)-N4-[2-(1-piperidylsulfonyl)phenyl]pyrimidine-4,6-diamine] |
| < 0.2 | 10 to 100 | Cc1cc(Nc2cc(Nc3cc(F)ccc3N(C)S(C)(=O)=O)ncn2)nc(C)n1 [Example 75, N-[2-[[6-[(2,6-dimethylpyrimidin-4-yl)amino]pyrimidin-4-yl]amino]-4-fluorophenyl]-N-methylmethanesulfonamide] |
